Assay results taken from ChEMBL document CHEMBL4406818, “Xanthone derivatives from the leaves of Garcinia oligantha” (2019).
The source made the active and inactive calls. No cut-off for these calls is given here.

Key:
[1] = tested on: LNCaP; assay: Cytotoxicity against quiescent human LNCAP cells assessed as induction of cell death at 20 uM measured after 24 hrs by SYBR green dye based fluorescence analysis; type: functional
[2] = tested on: LNCaP; assay: Induction of cell death in quiescent human LNCAP cells assessed as proportion of dead cells at 20 uM measured after 24 hrs by propidium iodide staining based flow cytometry analysis (reference value: 4.90 %); type: functional
[3] = tested on: LNCaP; assay: Induction of cell death in quiescent human LNCAP cells assessed as proportion of live cells at 20 uM measured after 24 hrs by propidium iodide staining based flow cytometry analysis (reference value: 95.1%); type: functional
[4] = tested on: LNCaP; assay: Induction of apoptosis in quiescent human LNCAP cells assessed as nucleus fragmentation at 5 to 12 uM measured after 24 hrs by phase contrast microscopy; type: functional, cell-based
[5] = tested on: LNCaP; assay: Induction of cell death in quiescent human LNCAP cells assessed as proportion of dead cells at 10 uM measured after 24 hrs by propidium iodide staining based flow cytometry analysis (reference value: 4.90 %); type: functional
[6] = tested on: LNCaP; assay: Induction of apoptosis in quiescent human LNCAP cells assessed as nucleus fragmentation at 5 to 12 uM measured after 24 hrs by Hoechst staining based fluorescent microscopy; type: functional, cell-based
[7] = tested on: LNCaP; assay: Induction of apoptosis in quiescent human LNCAP cells assessed as increase in caspase-3 activity at 8 to 12 uM measured after 24 hrs; type: functional, cell-based
[8] = tested on: LNCaP; assay: Induction of cell death in quiescent human LNCAP cells assessed as proportion of live cells at 7.5 uM measured after 24 hrs by propidium iodide staining based flow cytometry analysis (reference value: 95.1%); type: functional
[9] = tested on: LNCaP; assay: Induction of apoptosis in quiescent human LNCAP cells assessed as chromatin condensation at periphery of nucleus at 5 to 12 uM measured after 24 hrs by phase contrast microscopy; type: functional, cell-based
[10] = tested on: LNCaP; assay: Induction of apoptosis in quiescent human LNCAP cells assessed as chromatin condensation at periphery of nucleus at 5 to 12 uM measured after 24 hrs by Hoechst staining based fluorescent microscopy; type: functional, cell-based
[11] = tested on: LNCaP; assay: Induction of apoptosis in quiescent human LNCAP cells assessed as decrease in caspase-3 protein expression at 8 to 12 uM measured after 24 hrs by Western blot analysis; type: functional, cell-based
[12] = tested on: LNCaP; assay: Cytotoxicity against quiescent human LNCAP cells assessed as induction of cell death measured after 24 hrs by […] dye based fluorescence analysis; type: functional
[13] = tested on: LNCaP; assay: Induction of cell death in quiescent human LNCAP cells assessed as proportion of dead cells at 5 uM measured after 24 hrs by propidium iodide staining based flow cytometry analysis (reference value: 4.90 %); type: functional
[14] = tested on: LNCaP; assay: Induction of apoptosis in quiescent human LNCAP cells assessed as decrease in Bcl-2 protein expression at 8 to 12 uM measured after 24 hrs by Western blot analysis; type: functional, cell-based
[15] = tested on: LNCaP; assay: Induction of cell death in quiescent human LNCAP cells assessed as proportion of live cells at 5 uM measured after 24 hrs by propidium iodide staining based flow cytometry analysis (reference value: 95.1%); type: functional
[16] = tested on: LNCaP; assay: Induction of cell death in quiescent human LNCAP cells assessed as proportion of dead cells at 7.5 uM measured after 24 hrs by propidium iodide staining based flow cytometry analysis (reference value: 4.90 %); type: functional
[17] = tested on: LNCaP; assay: Induction of apoptosis in quiescent human LNCAP cells assessed as decrease in caspase-9 protein expression at 8 to 12 uM measured after 24 hrs by Western blot analysis; type: functional, cell-based
[18] = tested on: LNCaP; assay: Induction of cell death in quiescent human LNCAP cells assessed as proportion of live cells at 10 uM measured after 24 hrs by propidium iodide staining based flow cytometry analysis (reference value: 95.1%); type: functional

## COC(=O)C12OC(=O)C(CC=C(C)C)(CC=C(C)C)C1C(=O)c1c(O)cc3c(c1O2)C=CC(C)(C)O3 (racemic)
[1]
  Activity: Active

## CC(C)=CCCC(C)(O)[C@@H]1C[C@@]23CC=C(C)CO[C@]2(O1)C(=O)c1oc2c4c(cc(O)c2c(=O)c13)OC(C)(C)C=C4 (stereo partly specified)
[1]
  Activity: Active

## CC(C)=CCc1c(O)cc(O)c2c(=O)c3c(oc12)C(=O)[C@@]1(O)C(=O)[C@]3(CC=C(C)C)C[C@@H]2C(C)(C)CCC[C@]21C
[1]
  Activity: Active

## CC(=O)O[C@H]1C(=O)[C@@]2(C)[C@H]([C@H](OC(=O)c3ccccc3)[C@]3(O)C[C@H](OC(=O)[C@H](O)[C@@H](NC(=O)c4ccccc4)c4ccccc4)C(C)=C1C3(C)C)[C@]1(OC(C)=O)CO[C@@H]1C[C@@H]2O [PACLITAXEL]
[2]
  Activity: 7.08%
[3]
  Activity: 92.9%
[1]
  Activity: inactive

## COC(=O)C1(O)C(=O)C(CC=C(C)C)(CC=C(C)C)c2c1oc1c3c(cc(O)c1c2=O)OC(C)(C)C=C3 (stereo unspecified)
[1]
  Activity: Active

## COC(=O)c1oc2c(CC=C(C)C)c(O)cc(O)c2c(=O)c1C(CC=C(C)C)(CC=C(C)C)C(=O)O
[1]
  Activity: Active

## CC(C)=CCC/C(C)=C/C[C@@]12C[C@H](C(C)(C)O)OC1=C(O)C(=O)c1oc3c4c(cc(O)c3c(=O)c12)OC(C)(C)C=C4
[1]
  Activity: Active

## COC(=O)[C@]1(O)C(=O)[C@](CC=C(C)C)(C/C=C(\C)CCC=C(C)C)c2c1oc1c(CC=C(C)C)c(O)cc(O)c1c2=O
[4]
  Activity: Active
[5]
  Activity: 70.1%
[6]
  Activity: Active
[7]
  Activity: Active
[8]
  Activity: 49.9%
[9]
  Activity: Active
[10]
  Activity: Active
[11]
  Activity: Active
[12]
  Activity: Dose-dependent effect
[13]
  Activity: 12.4%
[14]
  Activity: Active
[15]
  Activity: 87.6%
[16]
  Activity: 50.1%
[17]
  Activity: Active
[1]
  Activity: Active
[18]
  Activity: 29.9%

## CC(C)=CCCC(C)(O)[C@@H]1C[C@@]2(CC=C(C)C)C(=C(O)C(=O)c3oc4c5c(cc(O)c4c(=O)c32)OC(C)(C)C=C5)O1 (stereo partly specified)
[1]
  Activity: Active
